SMILES strings stand for the structures. Read-outs that look alike come from different tables or passages of the source.

The target in the assay is T1, Human complement C1s enzyme (Homo sapiens, UniProt P09871).
T1 construct: purified from human serum, Complement Technology, Inc; purchased Complement Technology, Inc; host or cells: human serum (plasma-derived natural protein)
T1 sequence (P09871 438-688 limits assumed): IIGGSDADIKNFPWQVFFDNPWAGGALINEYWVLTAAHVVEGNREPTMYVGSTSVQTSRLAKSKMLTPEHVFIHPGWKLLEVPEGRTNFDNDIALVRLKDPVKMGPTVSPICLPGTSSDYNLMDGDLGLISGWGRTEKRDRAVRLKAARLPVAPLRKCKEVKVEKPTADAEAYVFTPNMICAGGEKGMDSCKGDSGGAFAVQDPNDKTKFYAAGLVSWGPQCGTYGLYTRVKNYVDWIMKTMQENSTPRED
T1 sequence (P09871 16-437 partner limits assumed): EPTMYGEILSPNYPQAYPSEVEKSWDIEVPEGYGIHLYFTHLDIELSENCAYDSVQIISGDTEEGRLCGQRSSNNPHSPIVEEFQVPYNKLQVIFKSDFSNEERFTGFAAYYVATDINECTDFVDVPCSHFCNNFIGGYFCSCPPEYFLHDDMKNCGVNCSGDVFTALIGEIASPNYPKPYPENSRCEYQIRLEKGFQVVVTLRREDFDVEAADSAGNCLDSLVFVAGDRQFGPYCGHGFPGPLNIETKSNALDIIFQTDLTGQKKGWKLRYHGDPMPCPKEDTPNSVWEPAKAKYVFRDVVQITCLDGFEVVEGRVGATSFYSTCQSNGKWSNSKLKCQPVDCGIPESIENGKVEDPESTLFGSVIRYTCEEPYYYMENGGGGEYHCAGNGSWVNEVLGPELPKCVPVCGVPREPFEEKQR
Description: Human C1s Enzyme Assay. The class given is biochemical. The note with it: C1s purified from human serum, 1.16 nM, substrate Z-L-Lys-SBzl, read-out: C1s Protease Activity. The procedure, abridged:
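Serum-purified human C1s (1.16 nM) preincubated 5 min at RT with compound in 50 mM Tris, 1 M NaCl, pH 7.5. Z-L-Lys-SBzl and DTNB (100 μM each) then added; A405 followed every 30 s for 30 min. IC50 from nonlinear regression of reaction rates versus compound concentration.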

Take `N=C(N)CCCCNC(=O)[C@@H]1CCCN1C(=O)CNC(=O)c1ccc(Oc2ccccc2)cc1` [Compound 29, (S)-N-(5-amino-5-iminopentyl)-1-((4-phenoxybenzoyl)glycyl)pyrrolidine-2-carboxamide]: for the setting “Table 1”, the IC50 was more than 1000 nM.
On to `N=C(N)c1csc(CNC(=O)[C@@H]2C[C@H](C(F)(F)F)CN2C(=O)CNC(=O)c2ccc(Oc3ccccc3)cc2)c1` [Compound 100, (2S,4S)-N-((4-carbamimidoylthiophen-2-yl)methyl)-1-((4-phenoxybenzoyl)glycyl)-4-(trifluoromethyl)pyrrolidine-2-carboxamide], for which the IC50 (Table 3) was less than 100 nM.
Same read-out and setting: the value for `C[C@@]12C[C@@H]1N(C(=O)CNC(=O)c1ccc(Oc3ccccc3)cc1)[C@H](C(=O)NCc1cc(/C(N)=N/O)cs1)C2` [Compound 94, (1S,3S,5S)-N-((4-((Z)-N′-hydroxycarbamimidoyl)thiophen-2-yl)methyl)-5-methyl-2-((4-phenoxybenzoyl)glycyl)-2-azabicyclo[3.1.0]heptane-3-carboxamide] was more than 1000 nM.
For `CN(C)CCCCCC(=O)NCC(=O)N1CCC[C@H]1C(=O)NCc1cc(C(=N)N)cs1` [Compound 71, (S)-N-((4-carbamimidoylthiophen-2-yl)methyl)-1-((6-(dimethylamino)hexanoyl)glycyl)pyrrolidine-2-carboxamide], the IC50 (Table 2) was more than 1000 nM.
Regarding `N=C(N)c1csc(CNC(=O)[C@@H]2C[C@H](Oc3cccc(F)c3)CN2C(=O)CNC(=O)c2ccc(Oc3ccccc3)cc2)c1` [Compound 108, (2S,4S)-N-((4-carbamimidoylthiophen-2-yl)methyl)-4-(3-fluorophenoxy)-1-((4-phenoxybenzoyl)glycyl)pyrrolidine-2-carboxamide], the IC50 (Table 3) is less than 100 nM.
For `N/C(=N\O)c1csc(CNC(=O)[C@@H]2CC3(CN2C(=O)CNC(=O)c2ccc(Oc4ccccc4)cc2)OCCO3)c1` [Compound 66, (S,Z)-N-((4-(N′-hydroxycarbamimidoyl)thiophen-2-yl)methyl)-7-((4-phenoxybenzoyl)glycyl)-1,4-dioxa-7-azaspiro[4.4]nonane-8-carboxamide], where the note is “Table 2”, the IC50 is less than 100 nM.
As to `CO[C@H]1C[C@@H](C(=O)NCc2cc(C(=N)N)cs2)N(C(=O)CNC(=O)c2ccc(Oc3ccccc3)cc2)C1` [Compound 33, (2S,4S)—N-[(4-carbamimidoylthiophen-2-yl)methyl]-4-methoxy-1-{2-[(4-phenoxyphenyl)formamido]acetyl}pyrrolidine-2-carboxamide], the IC50 (Table 1) is less than 100 nM.
For the compound `CCCOc1ccc(C(=O)NCC(=O)N2CCC[C@H]2C(=O)NCc2cc(C(=N)N)cs2)cc1` [Compound 77, (S)-N-((4-carbamimidoylthiophen-2-yl)methyl)-1-((4-propoxybenzoyl)glycyl)pyrrolidine-2-carboxamide], the IC50 (Table 2) was less than 100 nM.
Consider `Nc1ccc(CCNC(=O)[C@@H]2CC3(CN2C(=O)CNC(=O)c2ccc(Oc4ccccc4)cc2)OCCO3)cc1` [Compound 23, (8S)—N-[2-(4-Aminophenyl)ethyl]-7-{2-[(4-phenoxyphenyl)formamido]acetyl}-1,4-dioxa-7-azaspiro[4.4]nonane-8-carboxamide], for which the IC50 (Table 1) is more than 1000 nM.
`C[C@H](OCc1ccccc1)[C@H](OCc1ccccc1)[C@@H](OCc1ccccc1)[C@H](CN(CC(=O)N1CC2(C[C@H]1C(=O)NCc1cc(C(=N)N)cs1)OCCO2)C(=O)OCc1ccccc1)OCc1ccccc1` [Compound 87, benzyl (2-((S)-8-(((4-carbamimidoylthiophen-2-yl)methyl)carbamoyl)-1,4-dioxa-7-azaspiro[4.4]nonan-7-yl)-2-oxoethyl)((2S,3S,4S,5S)-2,3,4,5-tetrakis(benzyloxy)hexyl)carbamate]: the IC50 (Table 2) is more than 1000 nM.
With `CCCCCCCCC(=O)NCC(=O)N1CCC[C@H]1C(=O)NCc1cc(C(=N)N)cs1` [Compound 85, (S)-N-((4-carbamimidoylthiophen-2-yl)methyl)-1-(nonanoylglycyl)pyrrolidine-2-carboxamide], the IC50 (Table 2) was less than 100 nM.
`N=C(N)c1csc(CNC(=O)[C@@H]2CN2C(=O)CNC(=O)c2ccc(Oc3ccccc3)cc2)c1` [Compound 14, (2S)—N-[(4-Carbamimidoylthiophen-2-yl)methyl]-1-{2-[(4-phenoxyphenyl)formamido]acetyl}aziridine-2-carboxamide]: the IC50 (Table 1) lay within 100 to 1000 nM.
`CCCCCCCC(=O)NCC(=O)N1CCC[C@H]1C(=O)NCc1cc(C(=N)N)cs1` [Compound 84, (S)-N-((4-carbamimidoylthiophen-2-yl)methyl)-1-(octanoylglycyl)pyrrolidine-2-carboxamide]: the IC50 (Table 2) is less than 100 nM.
The same measure, in the same setting: the value for `N=C(N)c1csc(CNC(=O)[C@@H]2CCCN2C(=O)CNC(=O)CCCCc2ccccc2)c1` [Compound 80, (S)-N-((4-carbamimidoylthiophen-2-yl)methyl)-1-((5-phenylpentanoyl)glycyl)pyrrolidine-2-carboxamide] was less than 100 nM.
With `Cc1ccc(Oc2ccc(C(=O)NCC(=O)N3CC4(C[C@H]3C(=O)NCc3cc(C(=N)N)cs3)OCCO4)cc2)cc1` [Compound 1, (8S)—N-[(4-carbamimidoylthiophen-2-yl)methyl]-7-(2-{[4-(4-methylphenoxy)phenyl]formamido}acetyl)-1,4-dioxa-7-azaspiro[4.4]nonane-8-carboxamide], the IC50 (Table 1) is less than 100 nM.
Regarding `Cc1cc(C(=O)NCC(=O)N2CC3(C[C@H]2C(=O)NCc2nc(C(=N)N)cs2)OCCO3)ccc1Oc1ccccc1` [Compound 49, (S)-N-((4-carbamimidoylthiazol-2-yl)methyl)-7-((3-methyl-4-phenoxybenzoyl)glycyl)-1,4-dioxa-7-azaspiro[4.4]nonane-8-carboxamide], the IC50 (Table 2) was less than 100 nM.
Still for that read-out and setting: the value for `N=C(N)c1csc(CNC(=O)[C@@H]2CCCN2CCCC(=O)c2ccc(Oc3ccccc3)cc2)c1` [Compound 54, (S)-N-((4-carbamimidoylthiophen-2-yl)methyl)-1-(4-oxo-4-(4-phenoxyphenyl)butyl)pyrrolidine-2-carboxamide] was more than 1000 nM.

For the origin of these results see patent publication US12479856B2, “Pharmaceutical compounds for the treatment of complement mediated disorders” (Achillion Pharmaceuticals, Inc., priority 2019, dated 2025).
